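Method: 48-hour compound exposure of cells in 96-well plates, five concentrations, linear interpolation of endpoints. TGI: concentration producing complete growth inhibition.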
How the values were obtained:
Test in all cases: NCI tumour cell line growth inhibition, 48 h
RXF-631 renal = system: RXF-631 renal
786-0 renal = system: 786-0 renal
SN12K1 renal = system: SN12K1 renal
HOP-18 NSCLC = system: HOP-18 NSCLC
P388 leukemia = system: P388 leukemia
P388/ADR leukemia = system: P388/ADR leukemia

Compound: O=C(N/C(=C\c1ccccc1[N+](=O)[O-])c1nc2ccccc2[nH]1)c1ccccc1
- TGI (RXF-631 renal): > 100 µM

Compound: C=C(C)[C@@H]1CC[C@]2(C)CC[C@]3(C)[C@H](CC[C@@H]4[C@@]5(C)CC[C@H](OC(=O)c6ccccc6)C(C)(C)[C@@H]5CC[C@]43C)[C@@H]12
- TGI (786-0 renal): > 100 µM

Compound: Nc1ccc2c(c1)C1=NNC(=O)CC1C2 (stereo unspecified)
- TGI (SN12K1 renal): > 100 µM
- TGI (HOP-18 NSCLC): > 100 µM
- TGI (P388 leukemia): > 100 µM
- TGI (P388/ADR leukemia): > 100 µM

From PubChem BioAssay (NCI)
